The source of these data is ChEMBL document CHEMBL1125682, “Novel synthesis and biochemical properties of an [125I]-labeled photoaffinity probe for thromboxane A2/prostaglandin H2 receptors” (J Med Chem, 1991).

The target of experiment [1] is T1, Thromboxane A2 receptor (Homo sapiens, UniProt P21731).
T1 sequence (P21731 whole entry): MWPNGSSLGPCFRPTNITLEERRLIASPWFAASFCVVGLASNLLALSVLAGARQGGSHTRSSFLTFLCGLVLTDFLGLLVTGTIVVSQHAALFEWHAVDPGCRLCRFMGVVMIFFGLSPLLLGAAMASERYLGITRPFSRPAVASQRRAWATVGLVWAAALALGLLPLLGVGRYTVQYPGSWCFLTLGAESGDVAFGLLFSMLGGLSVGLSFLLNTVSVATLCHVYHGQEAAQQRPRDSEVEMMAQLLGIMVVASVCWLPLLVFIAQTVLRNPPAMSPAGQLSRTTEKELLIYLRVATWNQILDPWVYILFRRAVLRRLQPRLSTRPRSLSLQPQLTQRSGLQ
The experiment can be described thus: Binding affinity towards Thromboxane A2/ Prostaglandin H2 receptor in human platelet membranes using [125I]- as the radioligand. The class given is cell membranes.

The target of experiment [2] is T1, Thromboxane A2 receptor. Briefly: Binding affinity towards Thromboxane A2 receptor/Prostaglandin receptor in human platelet membranes using [125I]- as the radioligand. The experiment is classed as cell membranes.

For `O=C(O)C[C@@H]1CCCc2c1n(Cc1ccc(Cl)cc1)c1ccc(F)cc21` (stereo in doubt; L-657925), in experiment [1], the half-inhibitory concentration (IC50) (usually the concentration that gives 50% inhibition) was 11.2 nM.

In the case of `O=C(O)CCC/C=C\C[C@@H]1[C@@H](/C=C/[C@@H](O)COc2ccc(I)cc2)[C@H]2CC[C@@H]1O2`, the half-inhibitory concentration (IC50) in experiment [2] is 50 nM.

Take `O=C(O)C[C@@H]1CCCc2c1n(Cc1ccc(Cl)cc1)c1ccc(F)cc21` (stereo in doubt; L-657926): in experiment [1], the IC50 turned out to be 1500 nM.
